From patent US10647680B2, “Urea compound, preparation method therefor and medical use thereof” (Ancureall Pharmaceutical (Shanghai) Co., Ltd., priority 2016, dated 2020)
Structures can show the parent of a compound that is named as a salt.

How the values were obtained:
[1] = tested on: MV4-11 (FLT3 ITD+/+ mutant type); experiment: In vitro growth inhibition (GI50), MV4-11; type: cell-based, human; conditions: Homo sapiens, MV4-11; Cell lines of leukemia; read-out: GI 50 MV4-11 FLT3 (ITD +/+)
Description: (§1) 1. Cell Lines and Cell Cultures
(§2) Tumor cell line is an effective cell model for studying the inhibition of tumor cell growth or proliferation in vitro. In the present invention, a representative tumor cell line was selected to determine the cell growth inhibition activity of the present compound. All cell lines used were from ATCC, DSMZ, and the Cell Bank of the Chinese Academy of Sciences. Cell culture conditions and methods were in accordance with the requirements of each cell line. Cells were subcultured in vitro for no more than 3 passages each time, and as required, single-clone purification and identification of cell lines could be carried out.
(§3) The cell culture media used were RPMI1640 (Gibco), MEM (Gibco), McCOY'S5A (Gibco), and IMDM (Gibco). The complete medium was prepared by supplement with 5˜20% fetal calf serum (Gibco), 1% double-antibiotics (10000 units/mL penicillin and 10000 units/mL), 2 mM glutamine or 1 mM sodium pyruvate, respectively.
(§4) The human acute […] monomonocyte leukemia cell line MV4-11 (FLT3 ITD+/+ mutant type, ATCC) was cultured in a complete medium comprising 1×IMDM and 10% FBS. Human acute myeloid leukemia cell line MOLM-13 (FLT3 ITD+/− mutant type, DSMZ), human acute lymphoblastic leukemia cell line RS4; 11 (FLT3 wild type, ATCC), human chronic granulocytic leukemia cell line K562 (FLT3 negative expression, positive expression of BCR-ABL fusion protein, ATCC), human promyelocytic leukemia cell line HL-60 (FLT3 wild type, ATCC), human B lymphoblastic leukemia cell line RAMOS (positive expression of Brutons tyrosine protein kinase, ATCC), human acute myeloid leukemia cell line Kasumi-1 (c-Kit N822K mutant type, ATCC), human acute monocytic leukemia cell line U937 (FLT3 wild-type, ATCC), human acute myeloid leukemia cell line OCI-AML3 (NPMc+ mutant type, ATCC), human acute myeloid leukemia cell line KG-1 (expressing FGFR1OP2-FGFR1 fusion protein, ATCC) were cultured in a complete medium comprising 1×RPMI1640 and 10% FBS, respectively.
(§5) The suspension cells were collected by centrifugation. The supernatant was discarded and the cell pellet was resuspended and counted. Different cell concentrations (5˜10×10^4 cells/mL) were prepared according to the growth cycle of each cell line and then seeded on a 96-well plate (Corning), 100 μL/well. The cells were incubated overnight at 37° C., 5% CO2. The compounds were added to the cells on the second day with 2 wells in parallel. The final concentration of organic solvent shall not exceed 1%. The cells were continually incubated for 3 to 5 days, and then subjected to MTT assay.
(§6) The compound was stored in a concentration of 10 mM at −20° C. and diluted to 2- or 10-fold series prior to use.
(§7) Dojindo CCK8 reagent kit was used as MTT assay. […] FC meter was used as microplate reader.
(§8) For adherent cells, culture medium was removed and immediately replaced with the fresh prepared medium which contains 10% CCK8 reagent (100 μL/well). For the suspension cells, CCK8 was directly added to 10% of the final concentration. The cells were continually incubated for 1˜4 h. […] The experiment was independently repeated 1˜3 times, and subject to biological statistical analysis. 4. Experimental Results
(§9) The initial concentration of the compound was 5,000 nM, then it was serially diluted by 2-fold or 10-fold to 0.01 nM. The GI50 value of each test compound was calculated according to the GI50 assay and calculation method. The experiments were repeated 1 to 3 times, and data were subjected to biological statistical analysis.

[2] = tested on: MOLM-13 (FLT3 ITD+/− mutant type); experiment: In vitro growth inhibition (GI50), MOLM-13; type: cell-based, human; conditions: Homo sapiens, MOLM-13; Cell lines of leukemia; read-out: GI 50 MOLM-13 FLT3 (ITD+/−)
Description: as §1, §2, §3, §4, §5, §6, §7, §8, §9

RS4; 11 (FLT3 wild type) = experiment: In vitro growth inhibition (GI50), RS4; 11; type: cell-based, human; conditions: Homo sapiens, RS4-11; Cell lines of leukemia; read-out: GI 50 RS4: 11 FLT3 (WT)
Description: as §1, §2, §3, §4, §5, §6, §7, §8, §9

[3] = tested on: K562 (FLT3 negative expression, positive expression of BCR-ABL fusion protein); experiment: In vitro growth inhibition (GI50), K562; type: cell-based; conditions: Homo sapiens, Cell lines of leukemia, read-out: GI 50 K562 BCR-ABL
Description: as §1, §2, §3, §4, §5, §6, §7, §8, §9

[4] = tested on: RAMOS (positive expression of Brutons tyrosine protein kinase); experiment: In vitro growth inhibition (GI50), RAMOS; type: cell-based; conditions: Homo sapiens, Cell lines of leukemia, read-out: GI 50 Ramos BTK
Description: as §1, §2, §3, §4, §5, §6, §7, §8, §9

U937 (FLT3 wild-type) = experiment: In vitro growth inhibition (GI50), U937; type: cell-based; conditions: Homo sapiens, U-937; Cell lines of leukemia; read-out: GI 50 U937 FLT 3(WT)
Description: as §1, §2, §3, §4, §5, §6, §7, §8, §9

[5] = tested on: Kasumi-1 (c-Kit N822K mutant type); experiment: In vitro growth inhibition (GI50), Kasumi-1; type: cell-based; conditions: Homo sapiens, Cell lines of leukemia, read-out: GI 50 Kasumi-1 Kit (N822K)
Description: as §1, §2, §3, §4
as §5, with “Adherent cells were digested with 0.25% pancreatin-EDTA (Gibco). The suspension” for “The suspension”
(§10) The compound of the present invention and the control compound were dissolved in DMSO (Sigma) respectively, with the purity of more than 98%. The compound was stored in a concentration of 10 mM at −20° C. and diluted to 2- or 10-fold series prior to use.
(§11) Dojindo CCK8 reagent kit was used as MTT assay. THERMO […] FC meter was used as microplate reader.
(§12) For adherent cells, culture medium was removed and immediately replaced with the fresh prepared medium which contains 10% CCK8 reagent (100 μL/well). For the suspension cells, CCK8 was directly added to 10% of the final concentration. The cells were continually incubated for 1˜4 h. When a dark yellow color could be observed in the solvent control wells, the absorbance value at OD450 nm was measured and the cell growth rate was calculated according to the following formula: Cell Growth Rate (%)=100*(T−T0)/(C−T0) T=optical density of drug treatment cell well—optical density of blank control well; T0=optical density of cell well before drug treatment—optical density of blank control well; C=optical density of cell well of solvent control group—optical density of blank control well. The concentration value of 50% inhibition of cell growth (GI50) was calculated according to the drug concentration and cell growth rate curve. […]

[6] = tested on: KG-1 (expressing FGFR1OP2-FGFR1 fusion protein); experiment: In vitro growth inhibition (GI50), KG-1; type: cell-based; conditions: Homo sapiens; Cell lines of leukemia; read-out: GI 50 KG-1 FGFR1OP 2-FGFR1
Description: as §1, §2, §3, §4, §5, §6, §7, §8, §9

HL-60 (FLT3 wild type) = experiment: In vitro growth inhibition (GI50), HL-60; type: cell-based; conditions: Homo sapiens, Cell lines of leukemia, read-out: GI 50 HL60 FLT3 (WT)
Description: as §1, §2, §3, §4
as §5, with “Adherent cells were digested with 0.25% pancreatin-EDTA (Gibco). The suspension” for “The suspension”
as §10, §11, §12

[7] = tested on: OCI-AML3 (NPMc+ mutant type); experiment: In vitro growth inhibition (GI50), OCI-AML3; type: cell-based; conditions: Homo sapiens, OCI-AML-3; Cell lines of leukemia; read-out: GI 50 OCI- AML3 NPMc+
Description: as §1, §2, §3, §4, §5, §6, §7, §8, §9

Row | Compound | GI50 [1] | GI50 [2] | GI50 (RS4; 11 (FLT3 wild type)) | GI50 [3] | GI50 [4] | GI50 (U937 (FLT3 wild-type)) | GI50 (HL-60 (FLT3 wild type)) | GI50 [7] | GI50 [5] | GI50 [6]
1 | CC(C)(C)c1cc(NC(=O)Nc2ccc(-n3cnc4cc(OCCOCCO)ccc43)cc2)no1 [Compound 14, 1-(5-tert-butyl-isoxazol-3-yl)-3-(4-{5-[2-(2-hydroxy-ethoxyl)-ethoxyl]-benzimidazol-1-yl}-phenyl)-urea] | 0.0001 to 0.001 µM | 0.0001 to 0.001 µM | 0.1 to 1 µM | 0.1 to 1 µM |  | > 1 µM | > 1 µM | > 1 µM | > 1 µM | > 1 µM
2 | Cc1cc(N)nn1C(=O)Nc1ccc(-n2cnc3ccccc32)cc1 [Compound 113, 3-amino-5-methylpyrazol-1-carboxylic acid (4-benzimidazol-1-yl-phenyl)-amide] |  |  | > 1 µM | > 1 µM | > 1 µM | > 1 µM | > 1 µM | > 1 µM | > 1 µM | > 1 µM
3 | COCCOc1ccc2c(c1)ncn2-c1ccc(NC(=O)Nc2cc(C(C)(C)C)nn2C)cc1 [Compound 101, 1-(5-tert-butyl-2-methyl-2H-pyrazol-3-yl)-3-{4-[5-(2-methoxyl-ethoxyl)-benzimidazol-1-yl]-phenyl}urea] | 0.0001 to 0.001 µM | 0.0001 to 0.001 µM | > 1 µM |  | > 1 µM | > 1 µM | > 1 µM | > 1 µM | > 1 µM | 
4 | Cn1nc(C(C)(C)C)cc1NC(=O)Nc1ccc(-n2cnc3cc(OCCN4CCOCC4)ccc32)cc1 [Compound 102] | 0.0001 to 0.001 µM | 0.0001 to 0.001 µM | > 1 µM |  | > 1 µM | > 1 µM | > 1 µM | > 1 µM | > 1 µM | 

More lines, main results first:

Row | GI50 [1] | GI50 [2] | GI50 (RS4; 11 (FLT3 wild type)) | GI50 [3] | GI50 [4] | GI50 (U937 (FLT3 wild-type)) | GI50 (HL-60 (FLT3 wild type)) | GI50 [7] | Compound | GI50 [5] | GI50 [6]
5 | 0.1 to 1 µM | 0.1 to 1 µM | > 1 µM | > 1 µM | > 1 µM | > 1 µM | > 1 µM | > 1 µM | CC(C)(C)c1ccn(C(=O)Nc2ccc(-n3cnc4ccccc43)cc2)n1 [Compound 130, 3-tert-butyl-pyrazol-1-carboxylic acid (4-benzimidazol-1-yl-phenyl)-amide] | > 1 µM | > 1 µM
6 | 0.0001 to 0.001 µM | 0.0001 to 0.001 µM | > 1 µM | > 1 µM | > 1 µM | > 1 µM | > 1 µM | > 1 µM | CC(C)(C)c1cc(NC(=O)Nc2ccc(-n3cnc4ccccc43)cc2)no1 [Compound 3, 1-(4-benzimidazol-1-yl-phenyl)-3-(5-tert-butyl-isoxazol-3-yl)-urea] | > 1 µM | > 1 µM
7 | 0.001 to 0.01 µM | 0.001 to 0.01 µM | 0.1 to 1 µM | 0.1 to 1 µM | > 1 µM | > 1 µM | > 1 µM | > 1 µM | CC(C)(C)c1cc(NC(=O)Nc2ccc(-n3cnc4ccccc43)cc2)n(-c2ccccc2F)n1 [Compound 109, 1-(4-benzimidazol-1-yl-phenyl)-3-[5-tert-butyl-2-(2-fluoro-phenyl)-2H-pyrazol-3-yl]-urea] | > 1 µM | > 1 µM
8 | 0.1 to 1 µM | 0.1 to 1 µM | > 1 µM | > 1 µM | > 1 µM | > 1 µM | > 1 µM | > 1 µM | CC(C)(C)c1cc(NC(=O)Nc2ccc(-n3c(Cl)nc4ccccc43)cc2)no1 [Compound 36, 1-(5-tert-butyl-isoxazol-3-yl)-3-[4-(2-chlorobenzimidazol-1-yl)-phenyl]-urea] | > 1 µM | > 1 µM
9 |  |  |  |  | > 1 µM |  |  | > 1 µM | CC(C)(C)c1cc(NC(=O)Nc2ccc(-c3cn4c(n3)sc3cc(OCCN5CCOCC5)ccc34)cc2)no1 [AC220, N-(5-tert-butyl-isoxazol-3-yl)-N′-{4-[7-(2-morpholin-4-yl-ethoxy)imidazo[2,1-b][1,3]benzothiazol-2-yl]phenyl}urea dihydrochloride, reference compound] |  | > 1 µM
